The text below walks through data of ChEMBL document CHEMBL5137047, “Design, synthesis and anti-inflammatory evaluation of aloe-emodin derivatives as potential modulators of Akt, NF-κB and JNK signaling pathways” (Eur J Med Chem, 2022).

Active and inactive are the calls of the source. The calls are words filed in the database; no cut-off is given here.

The subject of data set [1] is RAW264.7. The data set can be described thus: Antiinflammatory activity against mouse RAW264.7 cells assessed as inhibition of LPS-induced nitric oxide production at 5 uM measured after 24 hrs. The class given is functional, cell-based.
For data set [2], the system named is RAW264.7. The data set can be described thus: Inhibition of IL-6 production in LPS-stimulated mouse RAW264.7 cells measured after 24 hrs by ELISA. The class given is functional, cell-based. As to conditions: dose 3.125-12.5 µM, DDE = dose-dependent effect.
For data set [3], the system named is RAW264.7. The data set can be described thus: Inhibition of IL-1beta production in LPS-stimulated mouse RAW264.7 cells measured after 24 hrs by ELISA. The class given is functional, cell-based. The note with it: dose 3.125-12.5 µM, DDE = dose-dependent effect.
The subject of data set [4] is RAW264.7. The experiment in a line: Downregulation of COX-2 protein expression in LPS-stimulated mouse RAW264.7 cells measured after 24 hrs by Western blot analysis. It is filed as functional, cell-based. As to conditions: dose 3.125-12.5 µM. (In general: Immunoblotting shows a protein as a band on a membrane.)
Data set [5] has as its system RAW264.7. The experiment in a line: Inhibition of LPS-induced NF-kappaB activation in mouse RAW264.7 cells assessed as upregulation of IkappaBalpha protein expression at 3.125 to 12.5 uM preincubated for 24 hrs followed by LPS addition and measured after 30 mins by Western blot analysis. The note with it: dose 3.125-12.5 µM, time 24.5 hrs. The class given is cell-based.

Data set [6] relates to RAW264.7. The experiment in a line: Inhibition of IL-6 mRNA expression in LPS-stimulated mouse RAW264.7 cells measured after 24 hrs by qRT-PCR analysis. The class given is functional, cell-based. The note with it: dose 3.125-12.5 µM, DDE = dose-dependent effect. In general terms: Quantitative PCR measures a nucleic acid by following its amplification.
In data set [7] the test system is RAW264.7. The experiment in a line: Inhibition of COX-2 mRNA expression in LPS-stimulated mouse RAW264.7 cells measured after 24 hrs by qRT-PCR analysis. The class given is functional, cell-based. The note with it: dose 3.125-12.5 µM, DDE = dose-dependent effect.
In data set [8] the test system is RAW264.7. The data set can be described thus: Antiinflammatory activity against mouse RAW264.7 cells assessed as inhibition of LPS-induced nitric oxide production measured after 24 hrs. The class given is functional, cell-based. As to conditions: RAW264.7, 24 h.
Data set [9] has as its system RAW264.7. The experiment in a line: Inhibition of IL-1beta mRNA expression in LPS-stimulated mouse RAW264.7 cells measured after 24 hrs by qRT-PCR analysis. It is filed as functional, cell-based. The note with it: dose 3.125-12.5 µM, DDE = dose-dependent effect.
The subject of data set [10] is RAW264.7. The data set can be described thus: Inhibition of PGE2 production in LPS-stimulated mouse RAW264.7 cells measured after 24 hrs by ELISA. It is filed as functional, cell-based. As to conditions: dose 3.125-12.5 µM, DDE = dose-dependent effect. In general terms: An ELISA detects its analyte on a solid surface through an enzyme-linked reagent.
The subject of data set [11] is RAW264.7. The experiment in a line: Inhibition of Akt phosphorylation in LPS-stimulated mouse RAW264.7 cells at 3.125 to 12.5 uM measured after 24 hrs by Western blot analysis. The class given is cell-based. As to conditions: dose 3.125-12.5 µM.
Data set [12] relates to RAW264.7. The experiment in a line: Inhibition of LPS-induced NF-kappaB activation in mouse RAW264.7 cells assessed as reduction in translocation of p65 from cytoplasm to nucleus at 3.125 to 12.5 uM preincubated for 24 hrs followed by LPS addition and measured after 30 mins by immunofluorescence analysis. It is filed as cell-based. As to conditions: dose 3.125-12.5 µM.
Data set [13] has as its system RAW264.7. The experiment in a line: Cytotoxicity against mouse RAW264.7 cells assessed as reduction in cell viability at upto 25 uM measured after 24 hrs by MTT assay. It is filed as toxicity, cell-based. As to conditions: raw264.7, 24 h.
For data set [14], the system named is RAW264.7. The experiment in a line: Inhibition of TNF-alpha production in LPS-stimulated mouse RAW264.7 cells measured after 24 hrs by ELISA. The class given is functional, cell-based. As to conditions: dose 3.125-12.5 µM, DDE = dose-dependent effect.
Data set [15] relates to RAW264.7. The data set can be described thus: Inhibition of LPS-induced NF-kappaB activation in mouse RAW264.7 cells assessed as reduction in p65 expression in nucleus at 3.125 to 12.5 uM preincubated for 24 hrs followed by LPS addition and measured after 30 mins by Western blot analysis. It is filed as cell-based. As to conditions: dose 3.125-12.5 µM.
The target in data set [16] is c-Jun N-terminal kinase (Mus musculus) (UniProt Q91Y86+Q9WTU6+Q61831). The experiment in a line: Inhibition of JNK phosphorylation in LPS-induced mouse RAW264.7 cells measured after 24 hrs by Western blot analysis. It is filed as cell-based. As to conditions: dose 3.125-12.5 µM, DDE = dose-dependent effect.
c-Jun N-terminal kinase (Mus musculus), sequence (Q61831 whole entry, looked up): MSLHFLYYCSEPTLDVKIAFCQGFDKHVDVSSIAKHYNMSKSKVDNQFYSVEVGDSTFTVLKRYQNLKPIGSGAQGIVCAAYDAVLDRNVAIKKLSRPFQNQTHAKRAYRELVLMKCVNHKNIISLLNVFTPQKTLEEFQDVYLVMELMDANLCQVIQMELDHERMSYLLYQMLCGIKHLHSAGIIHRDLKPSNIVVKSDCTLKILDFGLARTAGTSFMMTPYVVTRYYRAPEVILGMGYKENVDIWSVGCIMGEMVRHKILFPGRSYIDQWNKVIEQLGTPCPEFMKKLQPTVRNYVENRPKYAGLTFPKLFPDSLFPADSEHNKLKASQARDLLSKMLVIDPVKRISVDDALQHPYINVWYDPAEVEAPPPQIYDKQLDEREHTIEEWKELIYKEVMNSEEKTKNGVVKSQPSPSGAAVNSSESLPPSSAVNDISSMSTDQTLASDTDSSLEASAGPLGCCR
c-Jun N-terminal kinase (Mus musculus), sequence (Q91Y86 whole entry, looked up): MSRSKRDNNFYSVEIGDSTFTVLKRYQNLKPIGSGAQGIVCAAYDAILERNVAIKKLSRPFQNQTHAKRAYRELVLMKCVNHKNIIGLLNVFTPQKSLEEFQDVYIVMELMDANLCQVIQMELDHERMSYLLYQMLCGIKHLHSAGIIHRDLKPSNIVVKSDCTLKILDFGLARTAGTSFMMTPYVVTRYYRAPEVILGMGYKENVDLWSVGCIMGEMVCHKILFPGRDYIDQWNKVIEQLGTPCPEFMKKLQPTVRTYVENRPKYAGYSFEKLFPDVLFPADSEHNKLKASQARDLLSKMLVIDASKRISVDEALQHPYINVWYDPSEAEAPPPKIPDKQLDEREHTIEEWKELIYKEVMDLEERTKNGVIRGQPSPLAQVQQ
c-Jun N-terminal kinase (Mus musculus), sequence (Q9WTU6 whole entry, looked up): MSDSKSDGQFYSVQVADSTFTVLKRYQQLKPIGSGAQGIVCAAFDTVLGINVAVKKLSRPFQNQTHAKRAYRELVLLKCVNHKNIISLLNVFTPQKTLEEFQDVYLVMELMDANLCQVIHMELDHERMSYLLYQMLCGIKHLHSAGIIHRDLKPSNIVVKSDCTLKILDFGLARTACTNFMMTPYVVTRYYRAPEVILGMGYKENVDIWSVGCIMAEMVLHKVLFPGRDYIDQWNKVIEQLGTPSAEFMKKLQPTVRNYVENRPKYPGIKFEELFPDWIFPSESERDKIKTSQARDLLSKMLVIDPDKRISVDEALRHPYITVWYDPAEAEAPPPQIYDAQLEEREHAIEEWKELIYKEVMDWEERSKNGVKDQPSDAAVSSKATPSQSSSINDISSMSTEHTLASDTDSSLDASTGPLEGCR
Data set [17] has as its system RAW264.7. The data set can be described thus: Downregulation of iNOS protein expression in LPS-stimulated mouse RAW264.7 cells measured after 24 hrs by Western blot analysis. The class given is functional, cell-based. The note with it: dose 3.125-12.5 µM.

Take `CC(=O)Oc1cccc2c1C(=O)c1c(OC(C)=O)cc(COC(=O)CN3CCCCC3)cc1C2=O`: the “NO production inhibition (active/inactive call)” value with RAW264.7 [1] is “Active”. Still for that read-out and setting: then `O=C(CN1CCOCC1)OCc1cc(O)c2c(c1)C(=O)c1cccc(O)c1C2=O`, with “Active”; and `O=C(CN1CCOCC1)OCc1cc(OC(=O)c2ccccc2)c2c(c1)C(=O)c1cccc(OC(=O)c3ccccc3)c1C2=O`, with “Active”. In the case of `O=C(CN1CCCCC1)OCc1cc(O)c2c(c1)C(=O)c1cccc(O)c1C2=O`, the “NO production inhibition (active/inactive call)” value with RAW264.7 [1] is “Active”.

In the case of `O=C(CN1CCCC1)OCc1cc(O)c2c(c1)C(=O)c1cccc(O)c1C2=O`, the “NO production inhibition (active/inactive call)” value with RAW264.7 [1] was “Active”. Still for that read-out and setting: then `CC(C)N(C)CC(=O)OCc1cc(O)c2c(c1)C(=O)c1cccc(O)c1C2=O`, with “Active”. Same read-out and setting: then `O=C(CN1CCN(c2ccc(F)cc2)CC1)OCc1cc(O)c2c(c1)C(=O)c1cccc(O)c1C2=O`, with “Active”; and `CCN(CC)CC(=O)OCc1cc(O)c2c(c1)C(=O)c1cccc(O)c1C2=O`, with “Active”; and `CC(C)C(=O)Oc1cccc2c1C(=O)c1c(OC(=O)C(C)C)cc(COC(=O)CN3CCOCC3)cc1C2=O`, with “Active”. For `CN1CCN(CC(=O)OCc2cc(O)c3c(c2)C(=O)c2cccc(O)c2C3=O)CC1`, the inhibition result in the data set on RAW264.7 [2], in the data set on RAW264.7 [3], in the data set with RAW264.7 [6], with RAW264.7 [7], in the data set on RAW264.7 [9] and in the data set with RAW264.7 [10] was “Dde” throughout. For the same compound, the inhibition entry (in the data set on RAW264.7 [14]; in data set [16]) was “Dde” throughout. Also, the result in the data set on RAW264.7 [4] and in the data set on RAW264.7 [17] was Active. Also, the inhibition result in the data set with RAW264.7 [5], in the data set with RAW264.7 [11], in the data set with RAW264.7 [12] and in the data set with RAW264.7 [15] was “Active” throughout. In addition, the IC50 – broadly, the concentration that gives 50% inhibition – in the data set with RAW264.7 [8] came to 3.15 µM. The Activity entry in the data set with RAW264.7 [13] was “Non-Toxic”. `O=C(CN1CCC(O)CC1)OCc1cc(O)c2c(c1)C(=O)c1cccc(O)c1C2=O`: the “NO production inhibition (active/inactive call)” value in the data set with RAW264.7 [1] is “Active”. With `CCCN(C)CC(=O)OCc1cc(O)c2c(c1)C(=O)c1cccc(O)c1C2=O`, the “NO production inhibition (active/inactive call)” value in the data set on RAW264.7 [1] is “Active”. On the same count and under the same terms, then `CC(=O)Oc1cccc2c1C(=O)c1c(OC(C)=O)cc(COC(=O)CN3CCN(c4ccccc4)CC3)cc1C2=O`, with “Active”; and `CC(=O)Oc1cccc2c1C(=O)c1c(OC(C)=O)cc(COC(=O)CN3CCN(c4ccc(F)cc4)CC3)cc1C2=O`, with “Active”. The same measure, in the same setting: then `CC(=O)Oc1cccc2c1C(=O)c1c(OC(C)=O)cc(COC(=O)CN3CCOCC3)cc1C2=O`, with “Active”; and `CC(=O)Oc1cccc2c1C(=O)c1c(OC(C)=O)cc(COC(=O)CN3CCC(OC(C)=O)CC3)cc1C2=O`, with “Active”. The same measure, in the same setting: then `O=C(CN1CCSCC1)OCc1cc(O)c2c(c1)C(=O)c1cccc(O)c1C2=O`, with “Active”; and `CC(=O)Oc1cccc2c1C(=O)c1c(OC(C)=O)cc(COC(=O)CN3CCSCC3)cc1C2=O`, with “Active”.

On to `O=C(CN1CCN(c2ccccc2)CC1)OCc1cc(O)c2c(c1)C(=O)c1cccc(O)c1C2=O`, for which the “NO production inhibition (active/inactive call)” value in the data set on RAW264.7 [1] was “Active”.
